Data set [1] relates to B. subtilis 168HT. The data set is classed as cell-based, Bacillus subtilis. The procedure: (§1) The minimum inhibitory concentration (MIC) of peptides was determined by the standard microtiter dilution method, as performed previously. Briefly, the MIC was determined by growing the microorganisms in 96-well microtitration plates in the presence of a two-fold serial dilution of the peptides. […] Mueller Hinton broth (MHB, BD Difco, Thermo Fisher Scientific Inc., Waltham, MA, USA) was used for all cultures, including Bacillus subtilis 168HT, Staphylococcus aureus ST 88, Staphylococcus haemolyticus 527 (clinical isolate), and Escherichia coli K12 substr. MG1655 strains. Each experiment was performed in triplicate with positive (melittin (Merck Company Inc., Kenilworth, NJ, USA)) and negative (without peptide) inhibition controls.

In data set [2] the test system is S. aureus ST 88. The data set is classed as cell-based, Staphylococcus aureus. The procedure: as §1
Data set [3] relates to S. haemolyticus 527. The data set is classed as cell-based, Staphylococcus haemolyticus. The procedure: as §1
Data set [4] deals with McCoy cells. Briefly: LIVE/DEAD viability/cytotoxicity assay, fluorescent images. The data set is classed as cell-based, mouse. The note with it: 24 h. The procedure: (§2) The cytotoxicity of peptides towards the mouse fibroblast cell line McCoy was determined via the LIVE/DEAD™ Viability/Cytotoxicity Kit (Thermo Fisher Scientific Inc., Waltham, MA, USA) according to the manufacturer′s recommendations, as performed previously. […] Melittin was used as a negative control, and McCoy cells treated without peptides were used as a positive control. After peptide exposure, cells were washed and then stained with PBS containing calcein AM and ethidium homodimer–1 at concentrations of 0.3 and 1.25 μM, respectively, for 30 min at 37 °C. After staining, the cells were washed twice with PBS. The images were captured using an epifluorescence microscope with the respective filter cubes from 10 occasionally selected fields of view captured for each well with a 20× objective. Images were captured for FITC and TRITC channels. The numbers of cells in both channels were quantified with the ImageJ software (version 1.48; RSB).

In data set [5] the test system is McCoy cells. Briefly: Cytotoxicity by live/dead assay and lactate dehydrogenase assay together. The data set is classed as cell-based, mouse. The note with it: 24 and 48 h, peptide at 4x MIC, live/dead fluorescence imaging and LDH assay. The procedure:
We applied two techniques: Fluorescence imaging of dead and living cells (live/dead viability/cytotoxicity assay, Table 3, Figure S2) and a colorimetric assay (lactate dehydrogenase assay, Figure S3).
as §2
The cytotoxicity of peptides was also measured by a lactate dehydrogenase (LDH) assay kit (Merck Company Inc., Kenilworth, NJ, USA) according to the manufacturer′s recommendations. Briefly, 100 μL of McCoy cells per well were seeded on 96-well culture plates at a density of 2 × 10^5 cells/mL and incubated for 24 h at 37 °C with peptides at a final concentration equal to 4× MIC. Melittin was used as a negative control, and McCoy cells treated without peptides were used as a positive control. The growth medium without peptides was used as blank absorbance readings. After the peptide treatment, the plate with cells was centrifuged for 10 min at 900 g, and 50 μL of medium from each well was transferred to another plate. Fifty microlitres of the prepared LDH kit solution were added to each well. All manipulations were performed in the dark. The absorbance of the wells was measured after 15 min incubation in the dark at wavelengths of 495 and 690 nm using a Multiscan Ascent microtiter plate reader (Thermo Fisher Scientific Inc., Waltham, MA, USA). The specific absorbance of each sample was calculated according to the equation:Absorbance = A495 nm (Test) − A495 nm (Blank) − A690 nm (Test)
The percentage of cell viability was recalculated according to the control values.

Data set [6] deals with E. coli ATCC25922. The note with it: ref Porto et al. [32]; cited from earlier work. The source says:
According to numerous studies, the actions of AMPs on bacteria are diverse and appear to be dependent on the target and the peptide concentration. The speed of the antimicrobial effect of different AMPs can vary greatly.

The test system of data set [7] is E. coli K12 substr MG1655. The data set is classed as cell-based, Escherichia coli. The note with it: two-fold serial dilution, 96-well plates, Mueller Hinton broth, triplicate. The procedure: as §1

In brackets after ≈: the same amount, converted by molar mass. Entries after “also recorded” stand apart in the source; their conditions may differ. Like-named read-outs stand apart in the source and are kept apart here. Where no end group is shown, it is not given here.

One may read the MIC as the least concentration at which growth counts as inhibited.

As for IVKRFFRISYKLQSLKIIKGKRTFT [pept_84], the MIC was 5.3 µM in data set [1] (168HT), above 100 µM in data set [2] (ST 88) and 5.3 µM in data set [3] (527). Further, the “Cell Viability, %” value in data set [4] (4 MIC) came to 11.2 ± 7.4 %. Also, the “Cytotoxicity (in words)” value in data set [5] was “reduced the cell viability to a lesser but still severe degree”.

For guavanin 2, in data set [6], the “Time of lytic effect” value is 10 min.

In the case of KKGKSFKQLHIIVHLVKSWLRTILTHI [pept_352], the values for the MIC in data set [1] (168HT), in data set [2] (ST 88) and in data set [3] (527) were 10 µM, 19.9 µM and 10 µM, respectively. Further, the “Cell Viability, %” value in data set [4] (4 MIC) came to 0.2 ± 0.1 %. The “Cytotoxicity (in words)” value in data set [5] is given as “strong cytotoxicity comparable to melittin”.

With FVKILAKLVNYAKN [pept_970], the results for the MIC in data set [1] (168HT), in data set [2] (ST 88) and in data set [3] (527) were 19.8 µM, above 100 µM and above 100 µM, respectively. Further, the “Cell Viability, %” value in data set [4] (4 MIC) turned out to be 2.7 ± 2.1 %. Besides, the “Cytotoxicity (in words)” value in data set [5] is given as “strong cytotoxicity comparable to melittin”.

For FLIGKAIKRKFCLRSVWNA-NH2 [pept_1545], the MIC in data set [1] (168HT) was 7.2 µM; in data set [2] (ST 88), above 100 µM. For the same molecule, the “Cell Viability, %” value in data set [4] (4 MIC) is 98.7 ± 1.3%. For the same molecule, the “Cytotoxicity (in words)” value in data set [5] was “did not exert any inhibition of cell growth even after 48 h; also recorded: did not cause cell death”.

For IGRHFKRRNSIWGICWF [pept_1303], the MIC in data set [1] (168HT) was 14.8 µM; in data set [2] (ST 88), above 100 µM. Besides, in data set [4] (4 MIC), the “Cell Viability, %” value was determined as 25.1 ± 8.3 %. In data set [5], the “Cytotoxicity (in words)” value is given as “reduced the cell viability to a lesser but still severe degree”.

In the case of VLIRGLIHMLRGG [pept_148], the results for the MIC in data set [1] (168HT), in data set [2] (ST 88) and in data set [3] (527) were 22.4 µM, above 100 µM and above 100 µM, respectively. For the same molecule, the “Cell Viability, %” value in data set [4] (4 MIC) is reported as 98.3 ± 0.9%. For the same molecule, the “Cytotoxicity (in words)” value in data set [5] is reported as “did not exert any inhibition of cell growth even after 48 h; also recorded: did not cause cell death”.

`CC[C@H](C)[C@H](NC(=O)CN)C(=O)NCC(=O)N[C@@H](C)C(=O)N[C@H](C(=O)N[C@@H](CC(C)C)C(=O)N[C@@H](CCCCN)C(=O)N[C@H](C(=O)N[C@@H](CC(C)C)C(=O)N[C@H](C(=O)N[C@H](C(=O)NCC(=O)N[C@@H](CC(C)C)C(=O)N1CCC[C@H]1C(=O)N[C@@H](C)C(=O)N[C@@H](CC(C)C)C(=O)N[C@H](C(=O)N[C@@H](CO)C(=O)N[C@@H](Cc1c[nH]c2ccccc12)C(=O)N[C@H](C(=O)N[C@@H](CCCCN)C(=O)N[C@@H](CCCNC(=N)N)C(=O)N[C@@H](CCCCN)C(=O)N[C@@H](CCCNC(=N)N)C(=O)N[C@@H](CCC(N)=O)C(=O)N[C@@H](CCC(N)=O)C(N)=O)[C@@H](C)CC)[C@@H](C)CC)[C@@H](C)O)[C@@H](C)O)C(C)C)C(C)C` [Melittin, melittin, reference compound]: the MIC in data set [7] was determined as 5.7 µM (≈ 16.2 µg/mL); in data set [1] (B. subtilis 168HT, two-fold serial dilution, 96-well plates, Mueller Hinton broth, triplicate), 1.5 µM (≈ 4.27 µg/mL); in data set [2] (S. aureus ST 88 (MRSA), two-fold serial dilution, 96-well plates, Mueller Hinton broth, triplicate) it was 1.5 µM (≈ 4.27 µg/mL); in data set [3] (S. haemolyticus 527 (clinical isolate), two-fold serial dilution, 96-well plates, Mueller Hinton broth, triplicate), 5.7 µM (≈ 16.2 µg/mL). For the same molecule, the “Cell Viability, %” value in data set [4] (McCoy cells, 37 °C, peptide at 4× MIC, calcein AM / ethidium homodimer-1 staining, fluorescent images, mean ± SD (n = 3)) is 0.3 ± 0.1 %. Moreover, the “Time to kill E. coli ATCC25922” value in data set [6] is on record as 10 s.

(Values after publication PMC7582656, “The Hirudo Medicinalis Microbiome Is a Source of New Antimicrobial Peptides” (International Journal of Molecular Sciences, 2020).)
